What was measured:
Experiment in all cases: Ambit KinomeScan screening
Type in all cases: binding
Settings in all cases: CAL-130 10 μM
ABL1(H396P) = target: T1, ABL1(H396P) (Homo sapiens, UniProt P00519, H396P)
T1 construct: unspecified tag ("tagged kinases"); purchased Ambit (KinomeScan screening)
In short: (§1)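 Competition binding, 10 μM CAL-130 vs immobilized bait ligand; tagged kinases; readout % of control binding (lower = tighter); >35% = non-hit.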

ADCK3 = target: T2, ADCK3 (Homo sapiens, UniProt Q8NI60)
T2 construct: purchased Ambit (KinomeScan screening)
In short: as §1

CAMK2A = target: T3, CAMK2A (Homo sapiens, UniProt Q9UQM7)
T3 construct: unspecified tag ("tagged kinases"); purchased Ambit (KinomeScan screening)
In short: as §1

CDK9 = target: T4, CDK9 (Homo sapiens, UniProt P50750)
T4 construct: purchased Ambit (KinomeScan screening service)
In short: as §1

CLK1 = target: T5, CLK1 (Homo sapiens, UniProt P49759)
T5 construct: purchased Ambit (KinomeScan screening service)
In short: as §1

DCAMKL2 = target: T6, DCAMKL2 (Homo sapiens, UniProt Q8N568)
T6 construct: unspecified tag ("tagged kinases"); purchased Ambit (KinomeScan screening service)
In short: as §1

DMPK2 = target: T7, DMPK2 (Homo sapiens, UniProt Q6DT37)
T7 construct: unspecified tag ("tagged kinases"); purchased Ambit (KinomeScan screening service)
In short: as §1

DYRK1B = target: T8, DYRK1B (Homo sapiens, UniProt Q9Y463)
T8 construct: unspecified tag ("tagged kinases"); purchased Ambit (KinomeScan screening service)
In short: as §1

ERK1 = target: T9, ERK1 (Homo sapiens, UniProt P27361)
T9 construct: unspecified tag ("tagged kinases"); purchased Ambit (KinomeScan screening service)
In short: as §1

ERN1 = target: T10, ERN1 (Homo sapiens, UniProt O75460)
T10 construct: unspecified tag ("tagged kinases"); purchased Ambit (KinomeScan screening service)
In short: as §1

FER = target: T11, FER (Homo sapiens, UniProt P16591)
T11 construct: unspecified tag ("tagged kinases"); purchased Ambit (KinomeScan screening service)
In short: as §1

FGFR1 = target: T12, FGFR1 (Homo sapiens, UniProt P11362)
T12 construct: unspecified tag; purchased Ambit (KinomeScan screening service)
In short: as §1

FGFR3 = target: T13, FGFR3 (Homo sapiens, UniProt P22607)
T13 construct: unspecified tag; purchased Ambit (KinomeScan screening service)
In short: as §1

GSK3A = target: T14, GSK3A (Homo sapiens, UniProt P49840)
T14 construct: unspecified tag ('tagged kinases'); purchased Ambit (KinomeScan screening service)
In short: as §1

INSR = target: T15, INSR (Homo sapiens, UniProt P06213)
T15 construct: Ambit (KinomeScan screening)
In short: as §1

LATS1 = target: T16, LATS1 (Homo sapiens, UniProt O95835)
T16 construct: unspecified tag ('tagged kinases'); purchased Ambit (KinomeScan screening service)
In short: as §1

LCK = target: T17, LCK (Homo sapiens, UniProt P06239)
T17 construct: unspecified tag ('tagged kinases'); purchased Ambit (KinomeScan screening service)
In short: as §1

MAP3K2 = target: T18, MAP3K2 (Homo sapiens, UniProt Q9Y2U5)
T18 construct: Ambit (KinomeScan screening)
In short: as §1

MAP4K5 = target: T19, MAP4K5 (Homo sapiens, UniProt Q9Y4K4)
T19 construct: Ambit (KinomeScan screening)
In short: as §1

MAST1 = target: T20, MAST1 (Homo sapiens, UniProt Q9Y2H9)
T20 construct: purchased Ambit (KinomeScan screening)
In short: as §1

MET(Y1235D) = target: T21, MET(Y1235D) (Homo sapiens, UniProt P08581, Y1235D)
T21 construct: unspecified tag ('tagged kinases'); purchased Ambit (KinomeScan screening)
In short: as §1

MINK = target: T22, MINK (Homo sapiens, UniProt Q8N4C8)
T22 construct: unspecified tag ('tagged kinases'); purchased Ambit (KinomeScan screening)
In short: as §1

MKNK2 = target: T23, MKNK2 (Homo sapiens, UniProt Q9HBH9)
T23 construct: unspecified tag ('tagged kinases'); purchased Ambit (KinomeScan screening)
In short: as §1

MRCKA = target: T24, MRCKA (Homo sapiens, UniProt Q5VT25)
T24 construct: unspecified tag ('tagged kinases'); purchased Ambit (KinomeScan screening)
In short: as §1

NEK5 = target: T25, NEK5 (Homo sapiens, UniProt Q6P3R8)
T25 construct: unspecified tag; purchased Ambit (KinomeScan screening panel)
In short: as §1

PAK7 = target: T26, PAK7 (Homo sapiens, UniProt Q9P286)
T26 construct: unspecified tag ('tagged kinases'); purchased Ambit (KinomeScan screening)
In short: as §1

PIK3CA = target: T27, PIK3CA (Homo sapiens, UniProt P42336)
T27 construct: unspecified tag; purchased Ambit (KinomeScan screening panel)
In short: as §1

PIM2 = target: T28, PIM2 (Homo sapiens, UniProt Q9P1W9)
T28 construct: unspecified tag; purchased Ambit (KinomeScan screening panel)
In short: as §1

PKN2 = target: T29, PKN2 (Homo sapiens, UniProt Q16513)
T29 construct: purchased Ambit (KinomeScan screening service)
In short: as §1

PRKCE = target: T30, PRKCE (Homo sapiens, UniProt Q02156)
T30 construct: purchased Ambit (KinomeScan screening service)
In short: as §1

RIOK2 = target: T31, RIOK2 (Homo sapiens, UniProt Q9BVS4)
T31 construct: unspecified tag (tagged kinase); purchased Ambit (KinomeScan screening)
In short: as §1

RIPK1 = target: T32, RIPK1 (Homo sapiens, UniProt Q13546)
T32 construct: unspecified tag (tagged kinase); purchased Ambit (KinomeScan screening)
In short: as §1

RPS6KA6 = target: T33, RPS6KA6 (Homo sapiens, UniProt Q9UK32)
T33 construct: tag, kind not specified; purchased Ambit (KinomeScan screening service)
In short: as §1

TBK1 = target: T34, TBK1 (Homo sapiens, UniProt Q9UHD2)
T34 construct: tag (kind not specified); purchased Ambit (KinomeScan screening service)
In short: as §1

YES = target: T35, YES (Homo sapiens, UniProt P07947)
T35 construct: purchased Ambit (KinomeScan screening service)
In short: as §1

ZAK = target: T36, ZAK (Homo sapiens, UniProt Q9NYL2)
T36 construct: purchased Ambit (KinomeScan screening service)
In short: as §1

T27 sequence (P42336 whole entry): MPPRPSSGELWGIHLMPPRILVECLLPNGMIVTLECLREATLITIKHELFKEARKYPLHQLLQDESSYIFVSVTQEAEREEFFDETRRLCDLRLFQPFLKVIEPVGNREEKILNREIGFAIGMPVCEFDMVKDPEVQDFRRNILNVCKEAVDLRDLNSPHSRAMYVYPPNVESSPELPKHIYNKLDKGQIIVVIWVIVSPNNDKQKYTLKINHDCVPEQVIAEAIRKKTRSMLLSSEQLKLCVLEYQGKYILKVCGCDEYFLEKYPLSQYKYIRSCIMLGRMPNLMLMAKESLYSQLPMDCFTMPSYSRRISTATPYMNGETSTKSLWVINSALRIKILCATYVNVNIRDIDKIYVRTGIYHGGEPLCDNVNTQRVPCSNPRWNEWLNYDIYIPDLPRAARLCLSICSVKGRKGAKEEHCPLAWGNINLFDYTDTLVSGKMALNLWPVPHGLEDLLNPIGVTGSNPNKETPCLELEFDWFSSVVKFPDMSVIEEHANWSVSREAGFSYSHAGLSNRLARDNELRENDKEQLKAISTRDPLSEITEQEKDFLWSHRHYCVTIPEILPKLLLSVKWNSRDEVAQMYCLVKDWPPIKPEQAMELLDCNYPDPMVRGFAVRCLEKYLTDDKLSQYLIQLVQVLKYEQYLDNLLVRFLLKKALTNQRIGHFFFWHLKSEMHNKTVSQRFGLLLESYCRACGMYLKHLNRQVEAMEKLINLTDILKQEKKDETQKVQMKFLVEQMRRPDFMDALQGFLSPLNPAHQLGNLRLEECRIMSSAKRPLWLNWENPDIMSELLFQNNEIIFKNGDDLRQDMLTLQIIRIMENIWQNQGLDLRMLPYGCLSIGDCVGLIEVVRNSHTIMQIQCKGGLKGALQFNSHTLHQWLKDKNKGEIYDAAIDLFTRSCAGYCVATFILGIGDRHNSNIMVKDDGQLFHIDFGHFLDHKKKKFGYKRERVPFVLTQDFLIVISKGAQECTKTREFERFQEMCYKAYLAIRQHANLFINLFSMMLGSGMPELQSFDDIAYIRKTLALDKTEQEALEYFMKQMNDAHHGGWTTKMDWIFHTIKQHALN
T35 sequence (P07947 whole entry): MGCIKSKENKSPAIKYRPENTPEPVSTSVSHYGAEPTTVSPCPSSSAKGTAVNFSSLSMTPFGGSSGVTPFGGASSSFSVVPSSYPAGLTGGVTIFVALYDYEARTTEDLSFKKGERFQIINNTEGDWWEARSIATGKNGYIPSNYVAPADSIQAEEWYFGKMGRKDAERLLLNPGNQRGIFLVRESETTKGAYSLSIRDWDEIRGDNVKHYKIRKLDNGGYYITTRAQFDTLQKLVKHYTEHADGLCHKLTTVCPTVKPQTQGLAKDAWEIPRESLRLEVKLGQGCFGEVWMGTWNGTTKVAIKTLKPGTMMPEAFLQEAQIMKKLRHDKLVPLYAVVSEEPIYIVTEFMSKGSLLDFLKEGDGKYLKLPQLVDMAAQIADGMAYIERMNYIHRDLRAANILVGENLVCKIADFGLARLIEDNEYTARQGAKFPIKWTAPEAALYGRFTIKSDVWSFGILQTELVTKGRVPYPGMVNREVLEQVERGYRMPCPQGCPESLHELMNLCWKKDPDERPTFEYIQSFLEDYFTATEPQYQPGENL
T13 sequence (P22607 23-806): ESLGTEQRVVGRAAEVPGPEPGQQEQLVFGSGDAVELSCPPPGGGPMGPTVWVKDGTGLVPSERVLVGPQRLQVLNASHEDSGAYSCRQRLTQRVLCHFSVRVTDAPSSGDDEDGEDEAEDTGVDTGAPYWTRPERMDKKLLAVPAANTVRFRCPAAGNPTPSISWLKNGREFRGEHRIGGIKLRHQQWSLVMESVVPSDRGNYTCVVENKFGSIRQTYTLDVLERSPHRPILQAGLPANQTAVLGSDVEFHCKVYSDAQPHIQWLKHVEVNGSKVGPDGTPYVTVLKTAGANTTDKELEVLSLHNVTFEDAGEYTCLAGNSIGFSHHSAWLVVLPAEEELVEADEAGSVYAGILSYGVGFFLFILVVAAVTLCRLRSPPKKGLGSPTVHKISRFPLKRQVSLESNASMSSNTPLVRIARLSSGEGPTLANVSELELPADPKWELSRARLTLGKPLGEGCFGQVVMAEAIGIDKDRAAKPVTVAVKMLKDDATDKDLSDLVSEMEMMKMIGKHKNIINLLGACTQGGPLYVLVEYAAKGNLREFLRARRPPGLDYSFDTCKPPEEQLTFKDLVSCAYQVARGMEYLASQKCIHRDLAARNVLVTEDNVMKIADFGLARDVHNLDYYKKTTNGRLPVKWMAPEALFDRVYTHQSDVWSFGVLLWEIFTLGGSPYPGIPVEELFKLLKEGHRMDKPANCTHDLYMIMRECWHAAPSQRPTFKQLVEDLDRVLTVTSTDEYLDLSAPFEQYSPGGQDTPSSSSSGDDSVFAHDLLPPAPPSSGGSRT
T29 sequence (Q16513 whole entry): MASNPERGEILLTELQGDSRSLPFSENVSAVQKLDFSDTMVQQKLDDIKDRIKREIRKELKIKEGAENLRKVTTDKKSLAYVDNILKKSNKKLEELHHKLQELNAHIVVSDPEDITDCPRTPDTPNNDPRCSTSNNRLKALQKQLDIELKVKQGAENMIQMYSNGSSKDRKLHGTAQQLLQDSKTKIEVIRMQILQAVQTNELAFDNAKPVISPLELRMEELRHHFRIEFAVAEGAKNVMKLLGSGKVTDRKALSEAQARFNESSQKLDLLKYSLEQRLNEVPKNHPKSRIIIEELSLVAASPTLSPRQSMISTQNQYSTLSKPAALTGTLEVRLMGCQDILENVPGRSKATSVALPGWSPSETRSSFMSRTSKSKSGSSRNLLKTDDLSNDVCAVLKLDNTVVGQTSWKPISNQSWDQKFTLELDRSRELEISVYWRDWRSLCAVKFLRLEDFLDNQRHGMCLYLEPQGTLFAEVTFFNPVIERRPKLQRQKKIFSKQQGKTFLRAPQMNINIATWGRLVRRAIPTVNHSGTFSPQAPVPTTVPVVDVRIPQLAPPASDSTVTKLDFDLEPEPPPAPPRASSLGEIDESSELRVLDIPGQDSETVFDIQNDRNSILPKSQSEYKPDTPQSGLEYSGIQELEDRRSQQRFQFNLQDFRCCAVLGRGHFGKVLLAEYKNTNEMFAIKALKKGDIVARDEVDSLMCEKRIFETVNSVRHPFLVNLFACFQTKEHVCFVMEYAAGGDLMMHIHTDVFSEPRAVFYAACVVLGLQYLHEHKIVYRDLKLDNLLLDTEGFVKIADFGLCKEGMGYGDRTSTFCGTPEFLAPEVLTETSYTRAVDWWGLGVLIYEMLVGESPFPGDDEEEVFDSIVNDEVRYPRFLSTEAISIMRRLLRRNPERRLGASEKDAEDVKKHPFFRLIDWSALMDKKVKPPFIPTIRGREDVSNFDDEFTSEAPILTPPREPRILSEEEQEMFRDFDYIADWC
T3 sequence (Q9UQM7 whole entry): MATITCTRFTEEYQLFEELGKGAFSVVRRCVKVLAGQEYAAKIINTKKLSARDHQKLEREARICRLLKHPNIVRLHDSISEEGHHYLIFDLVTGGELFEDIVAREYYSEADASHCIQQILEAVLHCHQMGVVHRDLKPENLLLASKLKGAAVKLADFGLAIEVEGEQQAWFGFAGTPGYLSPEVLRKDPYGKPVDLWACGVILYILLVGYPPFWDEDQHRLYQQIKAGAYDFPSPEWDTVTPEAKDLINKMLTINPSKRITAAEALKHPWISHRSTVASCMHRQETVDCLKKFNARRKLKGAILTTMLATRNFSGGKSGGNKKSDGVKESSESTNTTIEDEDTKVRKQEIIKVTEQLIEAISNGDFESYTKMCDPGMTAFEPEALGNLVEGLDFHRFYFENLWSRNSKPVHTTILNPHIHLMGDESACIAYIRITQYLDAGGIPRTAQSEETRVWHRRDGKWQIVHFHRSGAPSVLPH
T9 sequence (P27361 whole entry): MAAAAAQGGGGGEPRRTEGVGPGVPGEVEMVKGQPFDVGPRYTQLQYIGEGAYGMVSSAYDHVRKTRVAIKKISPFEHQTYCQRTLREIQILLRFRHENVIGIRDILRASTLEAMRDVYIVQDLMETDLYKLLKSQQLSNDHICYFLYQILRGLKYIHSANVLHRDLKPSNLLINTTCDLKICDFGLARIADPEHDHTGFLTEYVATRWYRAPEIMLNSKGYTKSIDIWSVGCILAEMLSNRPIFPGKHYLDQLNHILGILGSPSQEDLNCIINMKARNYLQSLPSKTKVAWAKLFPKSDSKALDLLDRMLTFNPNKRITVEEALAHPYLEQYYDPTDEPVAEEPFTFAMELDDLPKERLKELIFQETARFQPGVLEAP
T14 sequence (P49840 whole entry): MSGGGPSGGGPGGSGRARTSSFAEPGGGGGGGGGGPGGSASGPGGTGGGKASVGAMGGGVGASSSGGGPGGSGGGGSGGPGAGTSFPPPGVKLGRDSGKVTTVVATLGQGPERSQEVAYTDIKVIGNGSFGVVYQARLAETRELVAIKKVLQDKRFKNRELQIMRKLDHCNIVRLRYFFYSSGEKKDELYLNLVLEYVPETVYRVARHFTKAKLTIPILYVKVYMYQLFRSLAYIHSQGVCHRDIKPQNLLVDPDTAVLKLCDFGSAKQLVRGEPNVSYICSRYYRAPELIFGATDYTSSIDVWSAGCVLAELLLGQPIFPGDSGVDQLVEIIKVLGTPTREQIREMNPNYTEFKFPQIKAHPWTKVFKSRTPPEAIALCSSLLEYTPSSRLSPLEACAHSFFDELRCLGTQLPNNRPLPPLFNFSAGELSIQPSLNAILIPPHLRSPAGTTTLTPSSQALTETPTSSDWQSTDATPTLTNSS
T28 sequence (Q9P1W9 whole entry): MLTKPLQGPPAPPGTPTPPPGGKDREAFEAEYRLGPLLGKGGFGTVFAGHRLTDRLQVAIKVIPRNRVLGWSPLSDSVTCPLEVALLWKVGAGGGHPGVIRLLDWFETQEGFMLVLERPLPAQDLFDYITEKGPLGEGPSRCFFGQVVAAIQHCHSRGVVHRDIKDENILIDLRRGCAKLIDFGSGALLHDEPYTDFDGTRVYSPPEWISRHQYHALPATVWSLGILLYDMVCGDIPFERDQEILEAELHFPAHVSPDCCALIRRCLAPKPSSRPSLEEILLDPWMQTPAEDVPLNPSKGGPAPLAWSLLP

Cc1ccccc1-n1c(C(C)Nc2nc(N)nc3nc[nH]c23)nc2cccc(C)c2c1=O (stereo not shown) [CAL-130]
Percent of Control Binding (ABL1(H396P)): 100% | Percent of Control Binding (ADCK3): 100% | Percent of Control Binding (CAMK2A): 100% | Percent of Control Binding (CDK9): 100% | Percent of Control Binding (CLK1): 100% | Percent of Control Binding (DCAMKL2): 100% | Percent of Control Binding (DMPK2): 100% | Percent of Control Binding (DYRK1B): 100% | Percent of Control Binding (ERK1): 100% | Percent of Control Binding (ERN1): 100% | Percent of Control Binding (FER): 100% | Percent of Control Binding (FGFR1): 100% | Percent of Control Binding (FGFR3): 100% | Percent of Control Binding (GSK3A): 100% | Percent of Control Binding (INSR): 100% | Percent of Control Binding (LATS1): 100% | Percent of Control Binding (LCK): 100% | Percent of Control Binding (MAP3K2): 100% | Percent of Control Binding (MAP4K5): 100% | Percent of Control Binding (MAST1): 100% | Percent of Control Binding (MET(Y1235D)): 100% | Percent of Control Binding (MINK): 100% | Percent of Control Binding (MKNK2): 16% | Percent of Control Binding (MRCKA): 100% | Percent of Control Binding (NEK5): 100% | Percent of Control Binding (PAK7): 100% | Percent of Control Binding (PIK3CA; PI3KCA (Table 2)): 12% | Percent of Control Binding (PIK3CA; PIK3CA (Table 1)): 12% | Percent of Control Binding (PIM2): 100% | Percent of Control Binding (PKN2): 100% | Percent of Control Binding (PRKCE): 100% | Percent of Control Binding (RIOK2): 100% | Percent of Control Binding (RIPK1): 100% | Percent of Control Binding (RPS6KA6): 100% | Percent of Control Binding (TBK1): 100% | Percent of Control Binding (YES): 100% | Percent of Control Binding (ZAK): 100%
